#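 A five-concentration, 48-hour dose response in 96-well plates underlies each endpoint, interpolated linearly between surrounding concentrations. GI50: concentration for 50% inhibition of growth. TGI: concentration producing complete growth inhibition.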
# Tests used:
# Assay in all cases: growth of human tumour cells (NCI), 48 h
# 786-0 renal = system: 786-0 renal
# HCT-15 colon = system: HCT-15 colon
# MALME-3M melanoma = system: MALME-3M melanoma
# NCI-H522 lung = system: NCI-H522 lung
# OVCAR-3 ovarian = system: OVCAR-3 ovarian
# OVCAR-4 ovarian = system: OVCAR-4 ovarian
# OVCAR-5 ovarian = system: OVCAR-5 ovarian
# SF-295 CNS = system: SF-295 CNS
# SK-MEL-2 melanoma = system: SK-MEL-2 melanoma
# U251 CNS = system: U251 CNS
smiles,measurement,setting,value
CN1C(=O)n2c(nc3ccccc32)C(N=[N+]=[N-])(N=[N+]=[N-])C1=O (centres undefined),TGI,786-0 renal,> 100 µM
same,TGI,HCT-15 colon,> 100 µM
same,TGI,MALME-3M melanoma,> 100 µM
same,TGI,NCI-H522 lung,> 100 µM
same,TGI,OVCAR-3 ovarian,> 100 µM
same,TGI,OVCAR-4 ovarian,> 100 µM
same,TGI,OVCAR-5 ovarian,> 100 µM
same,TGI,SF-295 CNS,> 100 µM
same,TGI,SK-MEL-2 melanoma,> 100 µM
same,TGI,U251 CNS,> 100 µM
Nc1ccccc1NC(=O)c1ccc(CSc2nc(N3CCOCC3)c3cccn3n2)cc1,GI50,786-0 renal,0.988 µM
same,TGI,786-0 renal,5.48 µM
same,GI50,HCT-15 colon,0.588 µM
same,TGI,HCT-15 colon,> 100 µM
same,GI50,MALME-3M melanoma,0.834 µM
same,TGI,MALME-3M melanoma,> 100 µM
same,GI50,NCI-H522 lung,0.339 µM
same,TGI,NCI-H522 lung,2.09 µM
same,GI50,OVCAR-3 ovarian,1.05 µM
same,TGI,OVCAR-3 ovarian,6.73 µM
same,GI50,OVCAR-4 ovarian,2.47 µM
same,TGI,OVCAR-4 ovarian,> 100 µM
same,GI50,OVCAR-5 ovarian,0.985 µM
same,TGI,OVCAR-5 ovarian,> 100 µM
same,GI50,SF-295 CNS,1.6 µM
same,TGI,SF-295 CNS,17.2 µM
same,GI50,SK-MEL-2 melanoma,0.314 µM
same,TGI,SK-MEL-2 melanoma,1.88 µM
same,GI50,U251 CNS,0.565 µM
same,TGI,U251 CNS,5.61 µM
N=c1nc(N)c2cc3c(N)nc(=N)c3cc12,TGI,786-0 renal,56.6 µM
same,TGI,HCT-15 colon,> 100 µM
same,TGI,MALME-3M melanoma,18 µM
same,TGI,NCI-H522 lung,46.4 µM
same,TGI,OVCAR-3 ovarian,75.2 µM
same,TGI,OVCAR-4 ovarian,51.2 µM
same,TGI,OVCAR-5 ovarian,73.9 µM
same,TGI,SF-295 CNS,51 µM
same,TGI,SK-MEL-2 melanoma,> 46.5 µM
same,TGI,U251 CNS,43.5 µM
CCN(Cc1ccc(F)cc1)c1ccc(CO)c(Cl)c1,GI50,786-0 renal,4.6 µM
same,TGI,786-0 renal,23.3 µM
same,GI50,HCT-15 colon,5.15 µM
same,TGI,HCT-15 colon,50.7 µM
same,GI50,MALME-3M melanoma,15 µM
same,TGI,MALME-3M melanoma,35.9 µM
same,GI50,NCI-H522 lung,14.5 µM
same,TGI,NCI-H522 lung,40.1 µM
same,GI50,OVCAR-3 ovarian,0.704 µM
same,TGI,OVCAR-3 ovarian,6.18 µM
same,GI50,OVCAR-4 ovarian,0.298 µM
same,TGI,OVCAR-4 ovarian,7.48 µM
same,GI50,OVCAR-5 ovarian,0.103 µM
same,TGI,OVCAR-5 ovarian,0.525 µM
same,GI50,SF-295 CNS,0.714 µM
same,TGI,SF-295 CNS,14 µM
same,GI50,SK-MEL-2 melanoma,2.03 µM
same,TGI,SK-MEL-2 melanoma,13.9 µM
same,GI50,U251 CNS,0.654 µM
same,TGI,U251 CNS,15.1 µM
CC(C#N)c1cn(S(=O)(=O)c2ccccc2)c2ccccc12 (centres undefined),TGI,786-0 renal,> 100 µM
same,TGI,HCT-15 colon,> 100 µM
same,TGI,MALME-3M melanoma,> 100 µM
same,TGI,NCI-H522 lung,94.9 µM
same,TGI,OVCAR-3 ovarian,> 100 µM
same,TGI,OVCAR-4 ovarian,> 100 µM
same,TGI,OVCAR-5 ovarian,> 100 µM
same,TGI,SF-295 CNS,> 100 µM
same,TGI,SK-MEL-2 melanoma,> 100 µM
same,TGI,U251 CNS,> 100 µM
Nn1c(CCCl)nc2c(Br)cc(Br)cc2c1=O,TGI,786-0 renal,81 µM
same,TGI,HCT-15 colon,55.1 µM
same,TGI,MALME-3M melanoma,> 100 µM
same,TGI,NCI-H522 lung,38.5 µM
same,TGI,OVCAR-3 ovarian,39.8 µM
same,TGI,OVCAR-4 ovarian,69.3 µM
same,TGI,OVCAR-5 ovarian,> 71.5 µM
same,TGI,SF-295 CNS,> 100 µM
same,TGI,SK-MEL-2 melanoma,> 90.9 µM
same,TGI,U251 CNS,> 58 µM
CCc1ccc(C2=C/C(=C/c3ccc(Cl)cc3)C(=O)N2CCc2ccc(S(N)(=O)=O)cc2)cc1,GI50,786-0 renal,1.86 µM
same,TGI,786-0 renal,3.53 µM
same,GI50,HCT-15 colon,2.98 µM
same,TGI,HCT-15 colon,12.9 µM
same,GI50,MALME-3M melanoma,1.96 µM
same,TGI,MALME-3M melanoma,5.19 µM
same,GI50,NCI-H522 lung,2.55 µM
same,TGI,NCI-H522 lung,7.39 µM
same,GI50,OVCAR-3 ovarian,2.12 µM
same,TGI,OVCAR-3 ovarian,4.6 µM
same,GI50,OVCAR-4 ovarian,2.56 µM
same,TGI,OVCAR-4 ovarian,8.03 µM
same,GI50,OVCAR-5 ovarian,2.18 µM
same,TGI,OVCAR-5 ovarian,5.7 µM
same,GI50,SF-295 CNS,1.77 µM
same,TGI,SF-295 CNS,3.72 µM
same,GI50,SK-MEL-2 melanoma,2.27 µM
same,TGI,SK-MEL-2 melanoma,7.76 µM
same,GI50,U251 CNS,2 µM
same,TGI,U251 CNS,4.2 µM
COc1cc2c(c(OC)c1OC)-c1ccc(OC)c(=O)cc1[C@@H](NC(=O)CCl)CC2,GI50,786-0 renal,< 0.01 µM
same,TGI,786-0 renal,1.7 µM
same,GI50,HCT-15 colon,0.0308 µM
same,TGI,HCT-15 colon,> 100 µM
same,GI50,MALME-3M melanoma,2.51 µM
same,TGI,MALME-3M melanoma,26.5 µM
same,GI50,NCI-H522 lung,< 0.01 µM
same,TGI,NCI-H522 lung,< 0.01 µM
same,GI50,OVCAR-3 ovarian,< 0.01 µM
same,TGI,OVCAR-3 ovarian,< 0.01 µM
same,GI50,OVCAR-4 ovarian,< 0.01 µM
same,TGI,OVCAR-4 ovarian,> 100 µM
same,TGI,OVCAR-5 ovarian,30.5 µM
same,GI50,SF-295 CNS,< 0.01 µM
same,TGI,SF-295 CNS,0.0743 µM
same,GI50,SK-MEL-2 melanoma,< 0.01 µM
same,TGI,SK-MEL-2 melanoma,10.3 µM
same,GI50,U251 CNS,< 0.01 µM
same,TGI,U251 CNS,2.02 µM

# Reference: PubChem BioAssay (NCI)
